Results published in patent US20240207214A1, “FATTY ACID LACTYLATES FOR USE IN TREATING RUMINANT ANIMALS” (FORFARMERS CORPORATE SERVICES B.V., priority 2021, published 2024).

What was measured:
Format in all cases: in vivo
Details in all cases: diet supplementation, 10 ruminants per group; putative results
[1] = test system: ruminants; assay: comparison of lactylates: effect on methane emission
Experimental: The well documented in vitro gas production technique (batch culture) (Soliva et al., Letters in Applied Microbiology 2003, 37, 35-39) was used in this study. The rumen fluid used in this incubation was obtained before the morning feeding from 3 rumen fistulated dairy cows on a basal diet composed of 50% maize silage and 50% wilted grass silage (on DM basis), supplemented with some straw and soybean meal. In addition, a balanced compound feed was fed to fulfill the animals' requirements for milk production. The rumen fluid of the three animals was mixed and used to prepare the inoculum. Incubations were performed in sealed 125-mL flasks, in triplicate. The supplements comprising the lactylates (in this case applied as ALOAPUR® powder as obtained from Purac/Corbion) at the level of 1 mg per ml buffered rumen fluid (see below), as well as the simulated dairy cow ration were added to the incubation flasks. On the day of the incubation, the flasks were sealed and flushed with CO2. To each flask, 25 mL of CO2-saturated bicarbonate/phosphate buffered rumen fluid was added (buffer:rumen fluid 4:1, v:v) before the onset of the in vitro incubations at 39° C. in a shaking incubator (Edmund Bühler Gmbh, Hechingen, Germany). After 24 h incubation period, the flasks were removed from the incubator and put directly in an ice bath to stop the microbial activity. Total gas pressure was measured, and the gas phase was sampled for gas composition analysis. Afterwards, pH was measured, and samples were collected for volatile fatty acids (VFA) analysis and protozoa numbers counting. […] Methane emission is determined as described in Example 1; SCC, BC and mastitis effects are determined as described in Example 2. Effect on fecal consistency and effect on milk yield is determined as described in Example 3. The different lactylates are stearoyl lactylate, lauroyl lactylate, myristoyl lactylate, cetyl lactylate, palmitoyl lactylate and oleic lactylate. As control, the same diet without lactylates is supplied.

[2] = test system: ruminants; assay: comparison of lactylates: effect on milk fat yield
Experimental: (§1) Two experiments were carried out to evaluate the efficacy of lactylate in stimulating intestinal absorptive capacity and improving fecal consistency, dry matter content and scores and milk fat yield. The first experiment was conducted with goats and the second with dairy cows. The focus of the first experiment was the absorptive capacity and fecal consistency and scores, while the 2nd experiment focused on the effect on milk fat yield. In the first experiment, a goat farm was used. The farm had issues with fecal consistency, having at least 30 goats per pen with low fecal consistency. Fecal consistency and scores per pen were recorded 2 times per week from the start of the experiment for a period of 3 months. The goats in the farm were supplemented with lactylates (in this case applied as ALOAPUR® powder as obtained from Purac/Corbion) (added to the compound feed) at the rate of 3.5 to 7 g per goat per day. The 2nd study focused on the effect on milk fat yield and was conducted at a dairy research farm. The herd (120 cows) was divided into 2 groups blocked on days in milk, milk yield and milk fat %. One group was supplemented with 50 g of lactylates per cow per day while the other group served as a control. The ration for both groups was similar and was balanced on energy, protein and minerals and vitamins. The experiment lasted for 9 week. Performance data was collected/recorded on weekly basis. […] Methane emission is determined as described in Example 1; SCC, BC and mastitis effects are determined as described in Example 2. Effect on fecal consistency and effect on milk yield is determined as described in Example 3. The different lactylates are stearoyl lactylate, lauroyl lactylate, myristoyl lactylate, cetyl lactylate, palmitoyl lactylate and oleic lactylate. As control, the same diet without lactylates is supplied.

[3] = test system: ruminants; assay: comparison of lactylates: effect on SCC, BC and mastitis
Experimental: Two experiments were carried out to evaluate the efficacy of lactylates in stimulating udder health. The first experiment was conducted with goats and the second with dairy cows. In the first experiment, a goat farm was used. The farm had issues with udder health and had high levels of somatic cell count (SCC) and bacterial counts (BC) in milk delivered. Performance and udder health data were collected every 4 weeks from shortly before starting the experiment for a duration of 3 months. During the experiment all goats on the farm were offered a ration supplemented with lactylates (in this case applied as ALOAPUR® powder as obtained from Purac/Corbion) (added to the compound feed, 3.5 to 7 g per goat per day). During the 3-month study period, every 3 to 4 weeks, data on performance and udder health was collected. The 2nd study was conducted on 7 dairy farms. […] Lactylates were supplemented to the ration of the cows on those farms via the compound feed (25 to 40 g per cow per day). The study lasted for 3 months. Performance and udder health data were collected at the beginning and every 4 weeks of the study. […] Methane emission is determined as described in Example 1; SCC, BC and mastitis effects are determined as described in Example 2. Effect on fecal consistency and effect on milk yield is determined as described in Example 3. The different lactylates are stearoyl lactylate, lauroyl lactylate, myristoyl lactylate, cetyl lactylate, palmitoyl lactylate and oleic lactylate. As control, the same diet without lactylates is supplied.

[4] = test system: ruminants; assay: comparison of lactylates: effect on fecal consistency score
Experimental: as §1

| Compound | Methane emission reduction relative to control [1] | Average milk fat yield increased relative to control [2] | BC in milk reduced relative to control [3] | SCC in milk reduced relative to control [3] | incidence of mastitis reduced relative to control [3] | Number of ruminants with low fecal consistency reduced relative to control [4] |
| --- | --- | --- | --- | --- | --- | --- |
| CCCCCCCCCCCCCCCC(=O)OC(C)C(=O)O (stereo not drawn) [Palmitoyl lactylate, palmitoyl lactylate] | by >90% | by >10% | by >20%, | by >20%, | by >25% | by >50% |
| CCCCCCCCCCCC(=O)OC(C)C(=O)O (stereo not drawn) [Lauroyl lactylate, lauroyl lactylate] | by >90% | by >10% | by >20%, | by >20%, | by >25% | by >50% |
| cetyl lactylate | by >90% | by >10% | by >20%, | by >20%, | by >25% | by >50% |
| CCCCCCCCCCCCCC(=O)OC(C)C(=O)O (stereo not drawn) [Myristoyl lactylate, myristoyl lactylate] | by >90% | by >10% | by >20%, | by >20%, | by >25% | by >50% |
| CCCCCCCC/C=C\CCCCCCCC(=O)OC(C)C(=O)O (stereo not drawn) [Oleic lactylate, oleic lactylate] | by >90% | by >10% | by >20%, | by >20%, | by >25% | by >50% |
